Assay [1] has as its target T1, HPK1 protein (Homo sapiens, UniProt Q92918).
T1 construct: purchased Signal Chem M23-11G-10
T1 sequence (Q92918 1-346 limits assumed): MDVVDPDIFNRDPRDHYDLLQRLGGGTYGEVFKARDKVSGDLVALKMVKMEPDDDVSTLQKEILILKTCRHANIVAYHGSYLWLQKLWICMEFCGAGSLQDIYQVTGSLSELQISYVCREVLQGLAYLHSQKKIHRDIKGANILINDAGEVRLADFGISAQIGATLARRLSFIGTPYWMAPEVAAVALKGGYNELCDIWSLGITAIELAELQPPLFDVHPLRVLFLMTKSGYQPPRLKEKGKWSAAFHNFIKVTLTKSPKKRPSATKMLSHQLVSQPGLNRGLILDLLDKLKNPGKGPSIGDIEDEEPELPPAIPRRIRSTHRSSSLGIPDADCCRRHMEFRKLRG
The assay is described as follows: HPK1 enzyme inhibition assay (ADP-Glo). Type of assay: biochemical. The conditions noted are these: MBP substrate, ATP, ADP-Glo readout. As to the method: The compound was dissolved in 100% DMSO at the concentration of 10 mM. The HPK1 protein was purchased from Signal Chem (M23-11G-10). 2.5 μL per well of 2×HPK1 protein was added to assay plate containing the test compound, centrifuged at 1500 rpm for 1 minute, and then incubated at 25° C. for 60 minutes. MBP protein was purchased from Signal Chem (M42-51N) and ATP was purchased from Promega (V9102). The two were added 2.5 μL per well mixture of 2×MBP (0.2 ug/ul) and ATP (20 μM), centrifuged at 1500 rpm for 1 minute, then incubated at 25° C. for 60 minutes. Then added 5 μL of ADP-Glo from Promega (V9102) to the assay plate and depleted the unconsumed ATP for 60 minutes. Then centrifuged at 1500 rpm for 1 minute and incubated at 25° C. for 60 minutes. Finally, 10 μL of the kinase assay reagent from Promega (V9102) was added to the assay plate to convert ADP to ATP, centrifuged at 1500 rpm for 1 minute, incubate at 25° C. for 40 minutes. After 40 minutes incubation, the […] was determined. Based on the results, the IC50 value of the compound was calculated.

The subject of assay [2] is HPK1 p-SLP-76. The experiment in a line: HPK1 p-SLP-76 inhibition assay in human PBMC (HTRF). Type of assay: cell-based. The conditions noted are these: 6 h compound, anti-CD3 stimulation 20 min. As to the method: Human PBMC were purchased from OriCells (FPB004F-C). Before compound treatment, PBMC were starved in PRMI-1640 medium supplemented with 0.5% FBS overnight. The cell density was adjusted to 1*10^7 cells/mL in assay medium (RPMI-1640 no phenol red with 0.5% FBS) and 16 μL cell suspension was transferred per well to a 384-well plate (Corning #3765). 6× solution of test compound was prepared in assay medium and 4 μL was added per well to the 384-well plate. The plate was then incubated at 37° C., 5% CO2 for 6 h. PBMC in 384-well plate were stimulated with anti-CD3 (BD Biosciences #555329, final conc. is 10 ug/mL) for 20 min at 37° C., 5% CO2 by adding 4 μL 6× antibody solution per well. Phospho-SLP76 HTRF kit was purchased from Cisbio (63ADK076PEH). 8 μL 4× Lysis Buffer was added to 384-well plate after anti-CD3 stimulation. The plate was centrifuged at 1,000 rpm for 1 min, shaken at 250 rpm for 60 min and centrifuged again at 1,000 rpm for 5 min. Afterwards the cell lysates were transferred to the assay plate (Greiner #784075) with 16 μL per well. 4 μL detection antibody mix per well prepared in Detection Buffer was added to the assay plate, followed by centrifugation at 1,000 rpm for 1 min and incubation at 25° C. overnight.

SMILES strings stand for the structures.

Take `CCc1c[nH]c2ncc(-c3cccc(N4CCN(C(=O)CCCCCCCOc5cccc6c5CN(C5CCC(=O)NC5=O)C6=O)CC4=O)c3)c(Cl)c12` (stereo not drawn) [Example 1]: the results for the IC50 in assay [1] and in assay [2] were 10 to 100 nM and 3000 to 10000 nM, respectively.
In the same order, the values of `CCc1c[nH]c2ncc(-c3cccc(N4CCN(C(=O)CCOCCOCCOc5cccc6c5CN(C5CCC(=O)NC5=O)C6=O)CC4=O)c3)c(Cl)c12` (stereo not drawn) [Example 12, 3-(4-(2-(2-(3-(4-(3-(4-chloro-3-ethyl-1H-pyrrolo[2,3-b]pyridin-5-yl)phenyl)-3-oxopiperazin-1-yl)-3-oxopropoxy)ethoxy)ethoxy)-1-oxoisoindolin-2-yl)piperidine-2,6-dione] are 10 to 100 nM and 3000 to 10000 nM.
In the same order, the values of `O=C1CCC(N2C(=O)c3ccc(C4=CCN(CCCN5CCN(c6cccc(-c7cnc8[nH]cc(C9CC9)c8c7Cl)c6)C(=O)C5)CC4)cc3C2=O)C(=O)N1` (stereo not drawn) [Example 70, 5-(1-(3-(4-(3-(4-chloro-3-cyclopropyl-1H-pyrrolo[2,3-b]pyridin-5-yl)phenyl)-3-oxopiperazin-1-yl)propyl)-1,2,3,6-tetrahydropyridin-4-yl)-2-(2,6-dioxopiperidin-3-yl)isoindoline-1,3-dione] are 10 to 100 nM and 300 to 3000 nM.
With `O=C1CCC(N2C(=O)c3ccc(C4CCN(CCCN5CCN(c6cccc(-c7cnc8[nH]cc(C9CC9)c8c7Cl)c6)C(=O)C5)CC4)cc3C2=O)C(=O)N1` (stereo not drawn) [Example 71, 5-(1-(3-(4-(3-(4-chloro-3-cyclopropyl-1H-pyrrolo[2,3-b]pyridin-5-yl)phenyl)-3-oxopiperazin-1-yl)propyl)piperidin-4-yl)-2-(2,6-dioxopiperidin-3-yl) isoindoline-1,3-dione], the IC50 in assay [1] was at most 10 nM; in assay [2], at most 300 nM.
In the same order, the values of `O=C1CCC(N2C(=O)c3ccc(N4CCN(CCCN5CCN(c6cccc(-c7cnc8[nH]cc(C9CC9)c8c7Cl)n6)C(=O)C5)CC4)cc3C2=O)C(=O)N1` (stereo not drawn) [Example 80, 5-(4-(3-(4-(6-(4-chloro-3-cyclopropyl-1H-pyrrolo[2,3-b]pyridin-5-yl)pyridin-2-yl)-3-oxopiperazin-1-yl)propyl)piperazin-1-yl)-2-(2,6-dioxopiperidin-3-yl)isoindoline-1,3-dione] are at most 10 nM and at most 300 nM.
As to `O=C1CCC(N2Cc3cc(N4CCN(CCCN5CCN(c6cccc(-c7cnc8[nH]cc(C9CC9)c8c7Cl)n6)C(=O)C5)CC4)ccc3C2=O)C(=O)N1` (stereo not drawn) [Example 81, 3-(5-(4-(3-(4-(6-(4-chloro-3-cyclopropyl-1H-pyrrolo[2,3-b]pyridin-5-yl)pyridin-2-yl)-3-oxopiperazin-1-yl)propyl)piperazin-1-yl)-1-oxoisoindolin-2-yl)piperidine-2,6-dione], the IC50 was at most 10 nM in assay [1] and at most 300 nM in assay [2].
In the same order, the values of `O=C1CCC(N2Cc3cc(C4CCN(CCCN5CCN(c6cccc(-c7cnc8[nH]cc(C9CC9)c8c7Cl)n6)C(=O)C5)CC4)ccc3C2=O)C(=O)N1` (stereo not drawn) [Example 82, 3-(5-(1-(3-(4-(6-(4-chloro-3-cyclopropyl-1H-pyrrolo[2,3-b]pyridin-5-yl)pyridin-2-yl)-3-oxopiperazin-1-yl)propyl)piperidin-4-yl)-1-oxoisoindolin-2-yl)piperidine-2,6-dione] are at most 10 nM and at most 300 nM.
In the case of `O=C1CCC(N2Cc3cc(C4=CCN(CCCN5CCN(c6cccc(-c7cnc8[nH]cc(C9CC9)c8c7Cl)n6)C(=O)C5)CC4)ccc3C2=O)C(=O)N1` (stereo not drawn) [Example 83], the values for the IC50 in assay [1] and in assay [2] were at most 10 nM and at most 300 nM, respectively.
In the same order, the values of `O=C1CCC(N2C(=O)c3ccc(C4CCN(CCCN5CCN(c6cccc(-c7cnc8[nH]cc(C9CC9)c8c7Cl)n6)C(=O)C5)CC4)cc3C2=O)C(=O)N1` (stereo not drawn) [Example 84, 5-(1-(3-(4-(6-(4-chloro-3-cyclopropyl-1H-pyrrolo[2,3-b]pyridin-5-yl)pyridin-2-yl)-3-oxopiperazin-1-yl)propyl)piperidin-4-yl)-2-(2,6-dioxopiperidin-3-yl)isoindoline-1,3-dione] are at most 10 nM and at most 300 nM.
In the same order, the values of `O=C1CCC(N2C(=O)c3ccc(C4=CCN(CCCN5CCN(c6cccc(-c7cnc8[nH]cc(C9CC9)c8c7Cl)n6)C(=O)C5)CC4)cc3C2=O)C(=O)N1` (stereo not drawn) [Example 85, 5-(1-(3-(4-(6-(4-chloro-3-cyclopropyl-1H-pyrrolo[2,3-b]pyridin-5-yl)pyridin-2-yl)-3-oxopiperazin-1-yl)propyl)-1,2,3,6-tetrahydropyridin-4-yl)-2-(2,6-dioxopiperidin-3-yl)isoindoline-1,3-dione] are at most 10 nM and 300 to 3000 nM.
In the same order, the values of `O=C1CCC(c2ccc(OC3CCN(CCCN4CCN(c5cccc(-c6cnc7[nH]cc(C8CC8)c7c6Cl)c5)C(=O)C4)CC3)cc2)C(=O)N1` (stereo not drawn) [Example 86] are at most 10 nM and 300 to 3000 nM.
For `O=C1CCC(c2ccc(C3CCN(CCCCN4CCN(c5cccc(-c6cnc7[nH]cc(C8CC8)c7c6Cl)c5)C(=O)C4)CC3)cc2)C(=O)N1` (stereo not drawn) [Example 87], the IC50 in assay [1] is at most 10 nM; in assay [2], at most 300 nM.
In the same order, the values of `O=C1CCC(N2C(=O)c3ccc(N4CC(CCOC(=O)N5CCN(c6cccc(-c7cnc8[nH]cc(CC(F)F)c8c7Cl)c6)C(=O)C5)C4)cc3C2=O)C(=O)N1` (stereo not drawn) [Example 91] are 10 to 100 nM and over 10000 nM.
For the molecule `Cn1nc(C2CCC(=O)NC2=O)c2ccc(C3CCN(CCCN4CCN(c5cccc(-c6cnc7[nH]cc(C8CC8)c7c6Cl)c5)C(=O)C4)CC3)cc21` (stereo not drawn) [Example 92, 3-(6-(1-(3-(4-(3-(4-chloro-3-cyclopropyl-1H-pyrrolo[2,3-b]pyridin-5-yl)phenyl)-3-oxopiperazin-1-yl)propyl)piperidin-4-yl)-1-methyl-1H-indazol-3-yl)piperidine-2,6-dione], the values for the IC50 in assay [1] and in assay [2] were at most 10 nM and 300 to 3000 nM, respectively.
In the same order, the values of `O=C1CCN(c2cnc3cc(C4=CCN(CCCN5CCN(c6cccc(-c7cnc8[nH]cc(C9CC9)c8c7Cl)c6)C(=O)C5)CC4)ccn23)C(=O)N1` [Example 93, 1-(7-(1-(3-(4-(3-(4-chloro-3-cyclopropyl-1H-pyrrolo[2,3-b]pyridin-5-yl)phenyl)-3-oxopiperazin-1-yl)propyl)-1,2,3,6-tetrahydropyridin-4-yl)imidazo[1,2-a]pyridin-3-yl)dihydropyrimidine-2,4 (1H,3H)-dione] are at most 10 nM and 300 to 3000 nM.
Regarding `O=C1CCC(Nc2ccc(C3CCN(CCCS(=O)(=O)N4CCN(c5cccc(-c6cnc7[nH]cc(C8CC8)c7c6Cl)c5)C(=O)C4)CC3)cc2)C(=O)N1` (stereo not drawn) [Example 104], the results for the IC50 in assay [1] and in assay [2] were at most 10 nM and at most 300 nM, respectively.
In the same order, the values of `O=C1CCC(Nc2ccc(N3CCN(CCCS(=O)(=O)N4CCN(c5cccc(-c6cnc7[nH]cc(C8CC8)c7c6Cl)c5)C(=O)C4)CC3)c(F)c2)C(=O)N1` (stereo not drawn) [Example 105, 3-((4-(4-(3-((4-(3-(4-chloro-3-cyclopropyl-1H-pyrrolo[2,3-b]pyridin-5-yl)phenyl)-3-oxopiperazin-1-yl)sulfonyl)propyl)piperazin-1-yl)-3-fluorophenyl)amino)piperidine-2,6-dione] are at most 10 nM and at most 300 nM.
In the same order, the values of `O=C1CCC(N2C(=O)c3ccc(N4CCN(CCCS(=O)(=O)N5CCN(c6cccc(-c7cnc8[nH]cc(CC(F)F)c8c7Cl)c6)C(=O)C5)CC4)cc3C2=O)C(=O)N1` (stereo not drawn) [Example 106] are at most 10 nM and 300 to 3000 nM.

Values taken from patent publication US20240368159A1, “HPK1 DEGRADERS, COMPOSITIONS COMPRISING THE HPK1 DEGRADER, AND METHODS OF USING THE SAME” (BIOFRONT LTD, priority 2021, published 2024).
